Patent publication US12383577B2, “Polysaccharide compound with a defined molecular structure that can eliminate the toxic side effects of chemotherapy drugs” (SHENZHEN YANDAI INVESTMENT CO., LTD, priority 2023, dated 2025)
Marks after values point to notes of the source that are not given here.

What was measured:
[1] = LLC-bearing mice study: mortality, survival time, body weight, spleen and thymus indices; format: in vivo, C57 mice
Description: Healthy LLC cells were inoculated subcutaneously into the left shoulder of 8 healthy male C57 mice. Once tumors reached a volume of 2,000-3,000 mm3, they were harvested and homogenized to prepare a homogenate suspension. This suspension was then injected subcutaneously into the axilla of 52 healthy male C57 mice to establish a solid tumor model. Once all mouse tumors averaged a volume of about 180 mm3, mice were randomized into groups based on tumor volume and were administered the respective drugs or drug solvents via oral gavage or intraperitoneal injection for 18 consecutive days. Longest and shortest diameters of tumors were measured every three days to calculate tumor volume, and mouse weights were recorded every three days. At the end of the experiment, tumors, spleens, and thymuses were harvested and weighed to calculate tumor, spleen, and thymus indices.
(§1) Spleen and thymus organ coefficients: After the last dose, spleen, thymus, and tumor weights are measured, and organ coefficients are calculated.

[2] = Orthotopic H22-bearing mice study: routine blood tests and liver/kidney function indicators; format: in vivo, C57 mice; settings: blood after last dose, cisplatin 4 mg/kg i.p., Kanglaite soft capsule 1404 mg/kg oral, GLP-2 low dose 130 mg/kg oral
Description: (§2) An additional 6 mice served as the normal control group.
Hematological tests: After the last dose, routine blood tests (WBC and RBC) and biochemical tests (liver and kidney functions) were performed.

[3] = Orthotopic H22-bearing mice study: mortality, body weight, organ coefficients; format: in vivo; settings: Kanglaite soft capsule 1404 mg/kg oral, GLP-2 low dose 130 mg/kg oral
From the text: as §2

H22-bearing mice = experiment: Antitumor effect of GLP-2 combined with chemotherapy on H22-bearing mice (tumor volume, tumor index, inhibition rates); format: in vivo, C57 mice; settings: for Tumor growth inhibition rate vs. the model control group: by tumor weight, cisplatin 3 mg/kg i.p. alone or + GLP-2 low dose 50 mg/kg oral
Description: A homogenate suspension of H22 mouse hepatoma was injected subcutaneously under the axilla of 45 healthy male C57 mice to create a solid tumor model. Once all mouse tumors averaged a volume of about 150 mm3, mice were randomized into groups based on tumor volume and were administered the respective drugs or drug solvents via oral gavage or intraperitoneal injection for 18 consecutive days. Longest and shortest diameters of tumors were measured every three days to calculate tumor volume, and mouse weights were recorded every three days. At the end of the experiment, tumors, spleens, and thymuses were harvested and weighed to calculate tumor, spleen, and thymus indices. […] [table] […] Where TRTV is the relative tumor volume in the experimental group, and CRTV is the relative tumor volume in the model control group. Relative tumor volume (RTV)=Vt/V0, where Vt is the tumor volume on day t of dosing, and V0 is the tumor volume at the time of grouping. […] Where T represents the average tumor weight in the treatment group, and C represents the average tumor weight in the model control group. […] Spleen and thymus organ coefficients: After the last dose, spleen, thymus, and tumor weights are measured, and organ coefficients are calculated.

[4] = H22-bearing mice study: mortality, survival time, body weight, spleen and thymus indices; format: in vivo, C57 mice
Description: A homogenate suspension of H22 mouse hepatoma was injected subcutaneously under the axilla of 45 healthy male C57 mice to create a solid tumor model. Once all mouse tumors averaged a volume of about 150 mm3, mice were randomized into groups based on tumor volume and were administered the respective drugs or drug solvents via oral gavage or intraperitoneal injection for 18 consecutive days. Longest and shortest diameters of tumors were measured every three days to calculate tumor volume, and mouse weights were recorded every three days. At the end of the experiment, tumors, spleens, and thymuses were harvested and weighed to calculate tumor, spleen, and thymus indices.
as §1

[5] = tested on: orthotopic H22-bearing mice; experiment: Orthotopic H22-bearing mice: liver tumor by small animal in vivo imaging; design: species or system C57 mice; settings: Kanglaite soft capsule 1404 mg/kg oral, GLP-2 low dose 130 mg/kg oral
Description: An additional 6 mice served as the normal control group. […] The proposed clinical dose for Kanglaite soft capsules is 0.45 g per capsule, 6 capsules per dose, 4 doses per day, which totals 10.8 g per day. […] This study used the proposed clinical dose as a basis for the experiment. […] [table] Tumor volume measurement: Tumor volume changes were measured weekly using small animal in vivo imaging technology.

LLC-bearing mice = experiment: Antitumor effect of GLP-2 combined with chemotherapy on LLC-bearing mice (tumor volume, tumor index, inhibition rates); format: in vivo, C57 mice
Description: Healthy LLC cells were inoculated subcutaneously into the left shoulder of 8 healthy male C57 mice. […] This suspension was then injected subcutaneously into the axilla of 52 healthy male C57 mice to establish a solid tumor model. Once all mouse tumors averaged a volume of about 180 mm3, mice were randomized into groups based on tumor volume and were administered the respective drugs or drug solvents via oral gavage or intraperitoneal injection for 18 consecutive days. Longest and shortest diameters of tumors were measured every three days to calculate tumor volume, and mouse weights were recorded every three days. At the end of the experiment, tumors, spleens, and thymuses were harvested and weighed to calculate tumor, spleen, and thymus indices. […] [table] […] Where TRTV is the relative tumor volume in the experimental group, and CRTV is the relative tumor volume in the model control group. Relative tumor volume (RTV)=Vt/V0, where Vt is the tumor volume on day t of dosing, and V0 is the tumor volume at the time of grouping. […] Where T represents the average tumor weight in the treatment group, and C represents the average tumor weight in the model control group. […] Spleen and thymus organ coefficients: After the last dose, spleen, thymus, and tumor weights are measured, and organ coefficients are calculated.

[6] = tested on: lymphocyte subtypes CD3+/CD4+ and CD3+/CD8+ in the blood; experiment: Orthotopic H22-bearing mice study: blood CD3+/CD4+ and CD3+/CD8+ by flow cytometry; format: in vivo, C57 mice; settings: blood after last dose, cisplatin 4 mg/kg i.p., Kanglaite soft capsule 1404 mg/kg oral, GLP-2 low dose 130 mg/kg oral
Description: as §2
CD4^+and CD8^+content measurement: After the last dose, lymphocyte subtypes CD3^+/CD4^+and CD3^+/CD8^+in the blood were measured using flow cytometry.

[7] = D0, cisplatin 4 mg/kg i.p. alone or + GLP-2 low dose 50 mg/kg oral
[8] = D3, cisplatin 4 mg/kg i.p. alone or + GLP-2 low dose 50 mg/kg oral
[9] = D6, cisplatin 4 mg/kg i.p. alone or + GLP-2 low dose 50 mg/kg oral
[10] = D9, cisplatin 4 mg/kg i.p. alone or + GLP-2 low dose 50 mg/kg oral
[11] = D12, cisplatin 4 mg/kg i.p. alone or + GLP-2 low dose 50 mg/kg oral
[12] = D15, cisplatin 4 mg/kg i.p. alone or + GLP-2 low dose 50 mg/kg oral
[13] = D18, cisplatin 4 mg/kg i.p. alone or + GLP-2 low dose 50 mg/kg oral
[14] = 14 days, cisplatin 4 mg/kg i.p.
[15] = D0, cisplatin 3 mg/kg i.p. alone or + GLP-2 low dose 50 mg/kg oral
[16] = D3, cisplatin 3 mg/kg i.p. alone or + GLP-2 low dose 50 mg/kg oral
[17] = D6, cisplatin 3 mg/kg i.p. alone or + GLP-2 low dose 50 mg/kg oral
[18] = D9, cisplatin 3 mg/kg i.p. alone or + GLP-2 low dose 50 mg/kg oral
[19] = D12, cisplatin 3 mg/kg i.p. alone or + GLP-2 low dose 50 mg/kg oral
[20] = D15, cisplatin 3 mg/kg i.p. alone or + GLP-2 low dose 50 mg/kg oral
[21] = D18, cisplatin 3 mg/kg i.p. alone or + GLP-2 low dose 50 mg/kg oral
[22] = 18 days, cisplatin 3 mg/kg i.p. alone or + GLP-2 low dose 50 mg/kg oral

N.N.[Cl][Pt][Cl] [Cisplatin]
Number of deaths ([1]; 18 days, cisplatin 4 mg/kg i.p. alone or + GLP-2 low dose 50 mg/kg oral): 2 | Weight [1, 7]: 20.8 ± 1.4 g | Weight [1, 8]: 20.7 ± 1.3 g | Weight [1, 9]: 20.4 ± 1 g | Weight [1, 10]: 19.7± 0.8*^+ g | Weight [1, 11]: 18.5 ± 0.6*+ g | Weight [1, 12]: 18.2± 1.2*^+ g | Weight [1, 13]: 17.9± 1.4*^+ g | Survival time ([1]; cisplatin 4 mg/kg i.p. alone or + GLP-2 low dose 50 mg/kg oral): 17.1 ± 1.9 days | ALT [2]: 115 ± 39 U/L | AST [2]: 771 ± 153 UL | BUN [2]: 13.52 ± 4.94 mmol/L | CRE [2]: 18.9 ± 2.7 µmol/L | RBC [2]: 8.91 ± 0.22 10^12/L | WBC [2]: 4.41 ± 1.83 10^9/L | Mortality rate [3, 14]: 50.0% | Number of deaths [3, 14]: 3 | Number of surviving animals [3, 14]: 3 | Weight ([3]; W0, cisplatin 4 mg/kg i.p.): 18.5 ± 1.3 g | Weight ([3]; W1, cisplatin 4 mg/kg i.p.): 16.9 ± 1.8 g | Weight ([3]; W2, cisplatin 4 mg/kg i.p.): 15.1 ± 1.6 g | Liver coefficient ([3]; cisplatin 4 mg/kg i.p.): 11.365 ± 3.599% | Spleen coefficient ([3]; cisplatin 4 mg/kg i.p.): 0.524± 0.295 % | Thymus coefficient ([3]; cisplatin 4 mg/kg i.p.): 0.078 ± 0.023 % | Tumor volume (H22-bearing mice; [15]): 167.9 ± 42.2 mm^3 | Tumor volume (H22-bearing mice; [16]): 205.9 ± 122.5 mm^3 | Tumor volume (H22-bearing mice; [17]): 417.4 ± 228.3 mm^3 | Tumor volume (H22-bearing mice; [18]): 577.3 ± 420.2 mm^3 | Tumor volume (H22-bearing mice; [19]): 798± 676.5^+ mm^3 | Tumor volume (H22-bearing mice; [20]): 952.7± 711.9^+ mm^3 | Tumor volume (H22-bearing mice; [21]): 1097± 805.3^+ mm^3 | Tumor growth inhibition rate vs. the model control group (H22-bearing mice): 57.3^+ % | Tumor growth inhibition rate vs. the model control group (H22-bearing mice; listed as cisplatin): 57.3% | Mortality rate [4, 22]: 0.0% | Number of deaths [4, 22]: 0 | Weight [4, 15]: 20.6 ± 1.3 g | Weight [4, 16]: 20.8 ± 1.3 g | Weight [4, 17]: 21 ± 1.3 g | Weight [4, 18]: 21 ± 1.5 g | Weight [4, 19]: 20.7± 1.4^+ g | Weight [4, 20]: 20.5± 1.4^+ g | Weight [4, 21]: 19.9± 1.7^+ g | Survival time ([4]; cisplatin 3 mg/kg i.p. alone or + GLP-2 low dose 50 mg/kg oral): 18 ± 0 days | Tumor ([5]; W0, cisplatin 4 mg/kg i.p.): 3756000 ± 2439052 P/s/cm^2/sr | Tumor ([5]; W1, cisplatin 4 mg/kg i.p.): 12898500 ± 3588676 P/s/cm^2/sr | Tumor ([5]; W2, cisplatin 4 mg/kg i.p.): 11871333 ± 2780016^& P/s/cm^2/sr | Tumor volume (LLC-bearing mice; [7]): 193 ± 41.9 mm^3 | Tumor volume (LLC-bearing mice; [8]): 350.8 ± 138.5 mm^3 | Tumor volume (LLC-bearing mice; [9]): 692.4± 215.3^+ mm^3 | Tumor volume (LLC-bearing mice; [10]): 956.4± 394^+ mm^3 | Tumor volume (LLC-bearing mice; [11]): 1186.6± 386.4^+ mm^3 | Tumor volume (LLC-bearing mice; [12]): 1388.9± 448.2^+ mm^3 | Tumor volume (LLC-bearing mice; [13]): 1679.8± 439^+ mm^3 | Tumor growth inhibition rate vs. the model control group (LLC-bearing mice; by tumor weight, cisplatin 4 mg/kg i.p. alone or + GLP-2 low dose 50 mg/kg oral): 67.3% | CD3^+/CD4^+ [6]: 4.26 ± 0.04 | CD3^+/CD8^+ [6]: 4.21 ± 0.81
